Results as given in US9120798B2, “Amino-heteroaryl 7-hydroxy-spiropiperidine indolinyl antagonists of P2Y1 receptor” (priority 2012, dated 2015).
Like-named read-outs stand apart in the source and are kept apart here.

Tests used:
[1] = biological target: cloned human P2Y1 receptors (Homo sapiens (Human), UniProt P47900); experiment: Binding Assay A: membrane binding assay, [33P] 2MeS-ADP, WGA FlashPlates
Description: A membrane binding assay was used to identify inhibitors of [^33P] […] The cDNA clone for human P2Y1 was obtained from Incyte Pharmaceuticals and its sequence confirmed by established techniques (for a compendium of techniques used see Ausubel, F. et al. Current Protocols in Molecular Biology, John Wiley and Sons, NY, N.Y. (1995)). The essential coding sequences were subcloned into pCDNA 3.1 (Invitrogen) to produce a P2Y1 expression construct. This construct was then transfected into the human embryonic kidney cell line HEK-293 and stable transfectants selected in GENETICIN® (G418 sulfate; Life Technologies). […] Membranes were prepared by growing HEK293 #49 in 150 mm dishes in DMEM/10% FBS in the presence of 1 mg/ml G418 until cells were 80-90% confluent. Plates were then washed with cold (4° C.) D-PBS twice and cells harvested by scraping into 10 mL D-PBS. Cells were pelleted by centrifugation (1,000 g, 10 min, 4° C.) and the resulting pellet resuspended in Lysis Buffer (10 mM Tris (7.4), 5 mM MgCl2 containing Complete protease inhibitor cocktail (Roche Cat #1873580) as recommended by the manufacturer). The suspension was then homogenized in a Dounce homogenizer (10-15 strokes; B pestle, on ice) and the homogenate spun at 1,000 g, 4° C., 5 min to pellet large debris. The supernatant was centrifuged at 150,000 g, 4° C., for 1 hour and the resulting membrane pellet resuspended in 0.5-1 mL of Buffer B (15 mM HEPES (7.4), 145 mM NaCl, 0.1 mM MgCl2, 5 mM EDTA, 5 mM KCl) and stored at −70° C. until used.
Binding reactions were performed in WGA FlashPlates (PerkinElmer Life Sciences, Cat # SMP105A) in a volume of 200 μL containing ˜45 fmol of P2Y1 receptor (5 μg of total protein), 0.5 nM [^33P] […] Reactions were allowed to proceed to completion at room temperature for 1 hour and then the aqueous solution aspirated. Plates were sealed and the residual [^33P] bound to the plate determined by scintillation counting.

[2] = system: human platelet rich plasma (PRP); experiment: ADP induced platelet aggregation assay; format: cell-based; conditions: 5 min, read-out: PA IC50 (μM) @ 10 μM ADP
Procedure: ADP Induced Platelet Aggregation Assay
The ability of P2Y1 antagonists covered in the present invention to inhibit platelet aggregation induced by 10 μM ADP was tested using human platelet rich plasma (PRP) as described in Platelet Protocols: Research and Clinical Laboratory Procedures (White, M. M. et al., Academic Press (1999)). Human blood was collected in 30 μM (final concentration in blood) argatroban (GSK) as the anticoagulant at a ratio of 1 ml per 9 ml of blood. The PRP was isolated by centrifugation at 170 g for 12 minutes. The platelet poor plasma (PPP) was used as the blank for optical aggregometry. Compounds of the present invention in DMSO solution was preincubated with 250 μl PRP at 37° C. for 1 minute with stirring speed of 1000 rpm. Aggregation was initiated by addition of 2.5 μl of 1 mM ADP (Chrono-log, Havertown, Pa.) for a final ADP concentration of 10 uM. Platelet aggregation was monitored using Optical Aggregometer (Chrono-log, Havertown, Pa.) and the area under the curve (AUC) at 5 minute was measured. IC50 was calculated using vehicle control as 0% inhibition.
The platelet aggregation assay measures the in vitro antiplatelet activity of a compound in platelet rich plasma. The assay is sensitive to plasma protein binding, and is believed to be a better predictor of actual in vivo activity.

[3] = read-out: P2Y1 Ki (nM), *Using binding assay A

cloned human P2Y1 receptors, sequence (P47900 whole entry): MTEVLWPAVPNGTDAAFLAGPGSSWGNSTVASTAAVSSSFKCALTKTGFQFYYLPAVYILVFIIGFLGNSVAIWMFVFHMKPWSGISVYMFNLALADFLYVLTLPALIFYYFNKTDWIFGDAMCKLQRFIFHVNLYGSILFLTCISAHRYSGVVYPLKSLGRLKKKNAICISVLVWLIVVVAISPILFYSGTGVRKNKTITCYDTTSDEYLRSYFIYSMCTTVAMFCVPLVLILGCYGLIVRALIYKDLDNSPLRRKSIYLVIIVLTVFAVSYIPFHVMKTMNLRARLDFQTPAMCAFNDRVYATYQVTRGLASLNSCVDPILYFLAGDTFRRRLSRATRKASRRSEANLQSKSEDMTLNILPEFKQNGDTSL

| SMILES | Ki [1, 3] [nM] | IC50 [2] [µM] | Ki [1] [nM] | Ki ([1]; starred values, FlashPlate, 0.5 nM [33P] 2MeS-ADP, Cheng-Prusoff, read-out: P2Y1 Ki (nM), *Using binding assay A) [nM] |
| --- | --- | --- | --- | --- |
| CC(C)(C)CN1CCC2(CC1)CN(c1ccccc1Nc1nnc(C3CCOCC3)s1)c1c(O)ccc(Cl)c12 [Example 14, 4-Chloro-1′-neopentyl-1-(2-((5-(tetrahydro-2H-pyran-4-yl)-1,3,4-thiadiazol-2-yl)amino)phenyl)spiro[indoline-3,4′-piperidin]-7-ol] | 155 | 23 | – | – |
| CC(C)(C)CN1CCC2(CC1)CN(c1ccccc1Nc1nnc(-c3ccc(C(F)(F)F)cc3)s1)c1c(O)ccc(Cl)c12 [Example 7, 4-Chloro-1′-neopentyl-1-(2-(5-(4-(trifluoromethyl)phenyl)-1,3,4-thiadiazol-2-ylamino)phenyl)spiro[indoline-3,4′-piperidin]-7-ol] | – | 2.7 | 3.3 | – |
| CC(C)(C)CN1CCC2(CC1)CN(c1ccccc1Nc1nc(C(F)(F)F)c(-c3ccccc3)s1)c1ccccc12 [Comparator 4, reference compound] | 7.9 | > 40 | – | – |
| CCOC(=O)c1sc(Nc2ccccc2N2CC3(CCN(CC(C)(C)C)CC3)c3ccccc32)nc1C(F)(F)F [Comparator 2, reference compound] | 6.3 | > 40 | – | – |
| CC(C)(C)CN1CCC2(CC1)CN(c1ccccc1Nc1nnc(-c3cccnc3)s1)c1c(O)ccc(Cl)c12 [Example 9, 4-Chloro-1′-neopentyl-1-(2-((5-(pyridin-3-yl)-1,3,4-thiadiazol-2-yl)amino)phenyl)spiro[indoline-3,4′-piperidin]-7-ol] | – | 8.5 | 24.3 | – |
| CC(C)(C)CN1CCC2(CC1)CN(c1ccccc1Nc1nnc(-c3cnccn3)s1)c1c(O)ccc(Cl)c12 [Example 12, 4-Chloro-1′-neopentyl-1-(2-((5-(pyrazin-2-yl)-1,3,4-thiadiazol-2-yl)amino)phenyl)spiro[indoline-3,4′-piperidin]-7-ol] | – | 0.9 | – | 6.5 |
